Test system: right and left V1 (primary visual cortex) BOLD signal
Assay: BOLD fMRI of visual cortex during red and blue photic stimulation after oral drug or placebo
Conditions: for mean BOLD signal change, higher in drug than in placebo condition: all trials, 2.5 mg oral

C[C@H](N)Cc1ccccc1.C[C@H](N)Cc1ccccc1.O=S(=O)(O)O [d-amphetamine, d-amphetamine sulfate]
mean BOLD signal change, higher in drug than in placebo condition (blue light 0.12 lux, drug vs placebo (1.60%)): 28% | effect of time following drug administration on BOLD signal response (linear regression) (blue light, Z=-2.471, P=0.013, decreasing BOLD signal over time): significant effect of time | mean BOLD signal change, higher in drug than in placebo condition (red light 0.12 lux, drug vs placebo (0.95%)): 30% | effect of time following drug administration on BOLD signal response (linear regression) (red light, Z=-0.470, P=0.638): no significant effect of drug over time
